Test results as given in article PMC6010099, “Synthesis and antitumor activity of novel 2, 3-didithiocarbamate substituted naphthoquinones as inhibitors of pyruvate kinase M2 isoform” (Journal of Enzyme Inhibition and Medicinal Chemistry, 2017).
Where two headings read alike, the source gives them in different places.

How the values were obtained:
PKM2 = molecular target: T1, PKM2 (Homo sapiens, UniProt P14618); test: PKM2 activity assay (fluorescent pyruvate kinase-lactate dehydrogenase coupled assay); type: biochemical; conditions: recombinant human PKM2, fluorescent PK-LDH coupled assay; read-out: IC50 ± SD, PKM2 inhibitory activity
T1 construct: His tag (N); made in house; host or cells: Escherichia coli BL21
Experimental: Human cDNA for PKM2 was cloned into pET28a^+ with a N-terminal His tag and purified from Escherichia coli strain BL21 (Invitrogen) using Ni-Agarose beads (Qiagen) as described previously.
Pyruvate kinase activity was measured with a fluorescent pyruvate kinase-lactate dehydrogenase coupled assay as previously described.
We first tested the effect of compound 3a-3h on PKM2 activity using a fluorescent PK-LDH coupled assay according to a previously reported method. Shikonin, which is a known inhibitor of PKM2, was used as the positive control. […] The preliminary SAR can be summarised as follows. The amine moiety of target compounds greatly influenced PKM2 inhibitory activity. Introduction of a short chain N, N-dimethylamine reduced the inhibitory activity (3b vs. 3c and 3d). When the n-propyl amine in 3d was replaced by allyl amine (3e), the inhibitory activity was lowered. […] Introduction of a sulphur atom therefore contributed to improvement of PKM2 inhibitory activity.

HCT116 = test: MTS cell proliferation assay, HCT116; type: cell-based, human; conditions: 48 h, read-out: IC50 ± SD, in vitro cytotoxicity HCT116
Experimental: (§1) Cell lines were grown with routine culture techniques in RPMI 1640 supplemented with 9% foetal bovine serum at 37 °C in 5% CO2.
(§2) Cells were plated in 96-well plates at a density of 5000 cells per well. Twelve hours after seeding, cells were treated with various concentrations of test compounds for 48 h. Cell viability was assessed with the MTS assay (Promega) according to the manufacturer's instruction.
(§3) To determine the efficiency of 3a-3h as antitumour agents, we assessed the in vitro cytotoxicity of 3a-3h using several different tumour cell lines derived from human colon cancer (HCT116), breast cancer (MCF7), cervical cancer (Hela) and lung cancer (H1299) and mouse melanoma (B16). […] This discrepancy may be due to the different properties of these compounds such as cell penetration that is important in the cellular assay.

MCF7 = test: MTS cell proliferation assay, MCF7; type: cell-based, human; conditions: MCF7 breast cancer, 48 h, read-out: IC50 ± SD, in vitro cytotoxicity MCF7
Experimental: as §1, §2, §3

Hela = test: MTS cell proliferation assay, Hela; type: cell-based, human; conditions: Hela cervical cancer, 48 h, read-out: IC50 ± SD, in vitro cytotoxicity Hela
Experimental: as §1, §2, §3

H1299 = test: MTS cell proliferation assay, H1299; type: cell-based, human; conditions: 48 h, read-out: IC50 ± SD, in vitro cytotoxicity H1299
Experimental: as §1, §2, §3

B16 = test: MTS cell proliferation assay, B16; type: cell-based; conditions: B16 mouse melanoma, 48 h, read-out: IC50 ± SD, in vitro cytotoxicity B16
Experimental: as §1, §2, §3

[1] = system: HCT116, MCF7, Hela, H1299 and B16 cells; test: MTS cell proliferation assay, range over the tumour cell panel; type: cell-based; conditions: range over the five cell lines, read-out: IC50 values against HCT116, MCF7, Hela, H1299 and B16 cells (range over cell lines)
Experimental: as §1, §2, §3

BEAS-2B cells = test: Cytotoxicity in normal BEAS-2B cells; type: cell-based; conditions: normal human bronchial epithelial cells
Experimental: as §1, §2
To further explore the selectivity of target compounds against cancer cells, we tested the cytotoxicity of representative compound 3f in BEAS-2B cells derived from normal human bronchial epithelial cells.

[2] = Homo sapiens, HCT-116, HCT116 colon cancer
[3] = Homo sapiens, NCI-H1299, H1299 lung cancer

T1 sequence (P14618 whole entry): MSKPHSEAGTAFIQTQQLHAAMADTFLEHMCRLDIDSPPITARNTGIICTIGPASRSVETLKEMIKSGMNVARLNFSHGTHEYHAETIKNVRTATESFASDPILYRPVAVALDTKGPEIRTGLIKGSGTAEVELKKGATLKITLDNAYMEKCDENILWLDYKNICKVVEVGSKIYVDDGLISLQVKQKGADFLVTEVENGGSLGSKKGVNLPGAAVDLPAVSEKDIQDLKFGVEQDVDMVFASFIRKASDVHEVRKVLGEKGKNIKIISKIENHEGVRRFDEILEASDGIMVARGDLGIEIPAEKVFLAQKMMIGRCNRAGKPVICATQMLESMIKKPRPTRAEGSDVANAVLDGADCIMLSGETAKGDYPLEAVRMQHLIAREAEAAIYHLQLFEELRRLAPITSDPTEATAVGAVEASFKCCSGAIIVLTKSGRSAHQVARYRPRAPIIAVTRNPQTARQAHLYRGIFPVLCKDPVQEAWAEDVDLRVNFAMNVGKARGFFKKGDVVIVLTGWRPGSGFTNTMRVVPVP

SMILES	IC50 (PKM2) [nM]	IC50 (HCT116; HCT116 colon cancer) [nM]	IC50 (MCF7) [nM]	IC50 (Hela) [nM]	IC50 (H1299; H1299 lung cancer) [nM]	IC50 (B16) [nM]	IC50 (HCT116; [2]) [nM]	IC50 (MCF7; Homo sapiens) [nM]	IC50 (Hela; Homo sapiens) [nM]	IC50 (H1299; [3]) [nM]	IC50 [1] [nM]	melting point [°C]	IC50 (BEAS-2B cells) [nM]
O=C1C(CSC(=S)N2CCOCC2)=C(CSC(=S)N2CCOCC2)C(=O)c2ccccc21 [3a, dimorpholine-dithiocarbamic acid 3-dimorpholinethiocarbamoylsulphanylmethyl-1,4-dioxo-1,4-dihydro-naphthalen-2-ylmethyl ester]	2640 ± 980	214 ± 3	340 ± 3	337 ± 54	331 ± 91	272 ± 10							
CN(C)C(=S)SCC1=C(CSC(=S)N(C)C)C(=O)c2ccccc2C1=O [3b, dimethyl-dithiocarbamic acid 3-dimethylthiocarbamoylsulphanylmethyl-1,4-dioxo-1,4-dihydro-naphthalen-2-ylmethyl ester]	> 10000					104 ± 11	88 ± 4	69 ± 9	122 ± 17	109 ± 2	69 to 122		
CCN(CC)C(=S)SCC1=C(CSC(=S)N(CC)CC)C(=O)c2ccccc2C1=O [3c, diethyl-dithiocarbamic acid 3-diethylthiocarbamoylsulphanylmethyl-1,4-dioxo-1,4-dihydro-naphthalen-2-ylmethyl ester]	2780 ± 970					108 ± 10	93 ± 2	84 ± 3	251 ± 59	144 ± 13	84 to 251	130 to 131	
CCCN(CCC)C(=S)SCC1=C(CSC(=S)N(CCC)CCC)C(=O)c2ccccc2C1=O [3d, dipropyl-dithiocarbamic acid 3-dipropylthiocarbamoylsulphanylmethyl-1,4-dioxo-1,4-dihydro-naphthalen-2-ylmethyl ester]	3080 ± 1230					787 ± 203	597 ± 14	> 10000	> 10000	830 ± 162		111 to 112	
C=CCN(CC=C)C(=S)SCC1=C(CSC(=S)N(CC=C)CC=C)C(=O)c2ccccc2C1=O [3e, diallyl-dithiocarbamic acid 3-diallylthiocarbamoylsulphanylmethyl-1,4-dioxo-1,4-dihydro-naphthalen-2-ylmethyl ester]	> 10000					709 ± 27	742 ± 45	1090 ± 421	3460 ± 3190	1020 ± 111			
O=C1C(CSC(=S)N2CCSCC2)=C(CSC(=S)N2CCSCC2)C(=O)c2ccccc21 [3f, dithiamorpholine-dithiocarbamic acid 3-dithiamorpholinethiocarbamoylsulphanylmethyl-1,4-dioxo-1,4-dihydro-naphthalen-2-ylmethyl ester]	1050 ± 170	189 ± 35	194 ± 55	412 ± 18	206 ± 18	189 ± 6							11500 ± 620
O=C1C(CSC(=S)N2CCCC2)=C(CSC(=S)N2CCCC2)C(=O)c2ccccc21 [3g, dipyrrolidine-dithiocarbamic acid 3-dipyrrolidinethiocarbamoylsulphanylmethyl-1,4-dioxo-1,4-dihydro-naphthalen-2-ylmethyl ester]	2330 ± 520	164 ± 3	638 ± 20	298 ± 53	247 ± 15	159 ± 2							
O=C1C(CSC(=S)N2CCSC2)=C(CSC(=S)N2CCSC2)C(=O)c2ccccc21 [3h, dithiazolidine-dithiocarbamic acid 3-dithiazolidinethiocarbamoylsulphanylmethyl-1,4-dioxo-1,4-dihydro-naphthalen-2-ylme-thyl ester]	960 ± 180	374 ± 15	234 ± 45	1130 ± 80	306 ± 8	317 ± 22							
CC1=C(CSC(=S)N2CCCCC2)C(=O)c2ccccc2C1=O [3k, reference compound]	2950 ± 530												
CC(C)=CC[C@@H](O)C1=CC(=O)c2c(O)ccc(O)c2C1=O [Shikonin, reference compound]	8820 ± 2620					1220 ± 155	1060 ± 182	2400 ± 346	813 ± 81	954 ± 186			
